In patent US20150218534A1, “MODIFIED DNA POLYMERASE” (TOYOBO CO., LTD., priority 2012, published 2015):

Tests used:
Type in all cases: biochemical
[1] = system: 482 bp of human β-globin; experiment: PCR amplification of 482 bp of human β-globin with dUTP in place of dTTP; design: key to Results of PCR in the presence of dUTP 481 bp: A: Amplified; B: Amplified (faint band); C: Not amplified; conditions: dTTP replaced by dUTP, 35 cycles
Method: 482 bp of human β-globin was amplified to compare the amplification difference between the case of using dTTP and the case of using dUTP in PCR, and the sensitivity to dUTP was examined. For amplification, each enzyme was used after being mixed with 1 μg of a KOD antibody per U of the enzyme. For PCR, components included in KOD-Plus-Ver. 2 (produced by Toyobo Co. Ltd.) were used. General dNTPs (dATP, dTTP, dCTP, dGTP) in an amount of 0.2 mM were added to 50 μl of individual reaction solutions, and dNTPs (dATP, dUTP, dCTP, dGTP) in an amount of 0.2 mM in which dTTP was replaced by dUTP were added to 50 μl of individual reaction solutions. The reaction solutions contained 1× PCR buffer, 1.5 mM MgSO4, primers represented by SEQ ID NOs: 27 and 28 in an amount of 15 pmol for amplifying […], 10 ng of human genomic DNA (produced by Roche), and 1 U of each respective enzyme mixed with the antibody. PCR was performed using a GeneAmp PCR system 9700 (produced by Applied Biosystems) on the following schedule: preliminary reaction at 94° C. for 2 minutes, followed by 35 cycles, each cycle consisting of 98° C. for 10 seconds and 68° C. for 1 minute. After the completion of each individual reaction, each of the resulting reaction solutions was analyzed using to a DNA-1000 kit for MultiNA (produced by Shimadzu Corporation) to confirm amplified DNA fragments. FIGS. 5 and 6 show the results.

[2] = system: human genomic DNA (about 1.3 kb) with dUTP added; experiment: Evaluation of uracil (dUTP) sensitivity by PCR with dUTP added to the reaction; conditions: closer to 0 = stronger sensitivity to dUTP, closer to 10 = lower sensitivity; summary of Examples 1 to 3
Method: The uracil sensitivity of the modified DNA polymerase of the present invention can be evaluated by PCR. For example, a dUTP solution is added at a final concentration of 0.5 μM to 200 μM to a common PCR reaction solution containing DNA as a template, a buffer, magnesium, dNTPs, primers, and a DNA polymerase to be evaluated, and thermal cycling is performed. After the reaction, the presence or absence of PCR products is confirmed by ethidium bromide-stained agarose electrophoresis, and the uracil sensitivity can be evaluated by the concentration of accepted dUTP. With a DNA polymerase having high uracil sensitivity, the extension reaction is inhibited by the addition of a small amount of dUTP, and PCR products cannot be confirmed. With a DNA polymerase having low uracil sensitivity, gene amplification by PCR can be confirmed without problem, even if a high concentration of dUTP is added. The modified DNA polymerase with low uracil sensitivity in the present invention refers to a DNA polymerase such that when optimum thermal cycling is performed using any primers and DNA as a template in a reaction buffer optimum for the enzyme, even if a high concentration of dUTP is added, an extension reaction is not inhibited and PCR products can be confirmed, compared to wild-type DNA polymerase, which has no mutation.
More specifically, 10× PCR buffer included in KOD-Plus-Ver. 2 (produced by Toyobo Co. Ltd.) or 10× PCR buffer included in Pfu DNA Polymerase (produced by Agilent) is used; dUTP (produced by Roche) is added to 50 μl of individual reaction solutions containing 1× PCR buffer, 1.5 mM MgSO4, dNTPs (dATP, dTTP, dCTP, and dGTP) in an amount of 0.2 mM, primers represented by SEQ ID NOs: 25 and 26 in an amount of 15 pmol for amplifying about 1.3 kb, 10 ng of human genomic DNA (produced by Roche), and 1 U of each respective enzyme, to final concentrations of 0.5, 5, 50, 100, and 200 μM. PCR is performed using a GeneAmp PCR system 9700 (Applied Biosystems) on the following schedule; preliminary reaction at 94° C. for 30 seconds, followed by 30 cycles, each cycle consisting of 98° C. for 10 seconds, 65° C. for 30 seconds, and 68° C. for 1 minute and 30 seconds. After the completion of each individual reaction, 5 μl of each of the resulting reaction solutions is subjected to agarose electrophoresis, followed by ethidium bromide staining. The uracil sensitivity can be evaluated by confirming amplified DNA fragments of about 1.3 kb under ultraviolet irradiation.
PCR was performed by the following method to evaluate uracil sensitivity. For PCR, components included in KOD-Plus-Ver. 2 (produced by Toyobo Co. Ltd.) were used. dUTP (produced by Roche) was added to 50 μl of individual reaction solutions containing 1× PCR buffer, 1.5 mM MgSO4, dNTPs (dATP, dTTP, dCTP, dGTP) in an amount of 0.2 mM, primers represented by SEQ ID NOs: 25 and 26 in an amount of 15 pmol for amplifying about 1.3 kb, 10 ng of human genomic DNA (produced by Roche), and 1 U of each respective enzyme, to final concentrations of 0.5, 5, 50, 100, and 200 μM. PCR was performed using a GeneAmp PCR system 9700 (produced by Applied Biosystems) on the following schedule: preliminary reaction at 94° C. for 30 seconds, followed by 30 cycles, each cycle consisting of 98° C. for 10 seconds, 65° C. for 30 seconds, and 68° C. for 1 minute and 30 seconds. After the completion of each individual reaction, 5 μl of each of the resulting reaction solutions was subjected to agarose electrophoresis, followed by ethidium bromide staining. Under ultraviolet irradiation, amplified DNA fragments of about 1.3 kb were confirmed. FIGS. 3, 4, 7, and 8 show the results.

[3] = system: 1.3 kbp, 2.8 kbp, and 3.6 kbp of human β-globin; experiment: Amplification of long-chain DNA in PCR using dUTP; design: key to Results of PCR in the presence of dUTP 1.3 kbp / Results of PCR in the presence of dUTP 2.8 kbp / Results of PCR in the presence of dUTP 3.6 kbp: A: Amplified; B: Amplified (faint band); C: Not amplified; conditions: dTTP replaced by dUTP, 35 cycles
Method: Amplification of 1.3 kbp, 2.8 kbp, and 3.6 kbp of human β-globin in PCR using dUTP was compared. For amplification, each enzyme was used after being mixed with 1 μg of a KOD antibody per U of the enzyme. For PCR, components included in KOD-Plus-Ver. 2 (produced by Toyobo Co. Ltd.) were used. 50 μl of individual reaction solutions containing 1× PCR buffer, 1.5 mM MgSO4, dNTPs (dATP, dUTP, dCTP, dGTP) in an amount of 2 mM in which dTTP was replaced by dUTP, primers in an amount of 15 pmol (SEQ ID NOs: 25 and 26 for amplification of 1.3 kbp; SEQ ID NOs: 26 and 29 for amplification of 2.8 kbp; SEQ ID NOs: 30 and 31 for amplification of 3.6 kbp), 10 ng of human genomic DNA (produced by Roche), and 1 U of each respective enzyme mixed with the antibody were used. PCR was performed using a GeneAmp PCR system 9700 (Applied Biosystems) on the following schedule: preliminary reaction at 94° C. for 2 minutes, followed by 35 cycles, each cycle consisting of 98° C. for 10 seconds, 65° C. for 30 seconds, and 68° C. for about 1 minute per kbp (1 minute and 30 seconds for amplification of 1.3 kbp; 3 minutes for amplification of 2.8 kbp; 4 minutes for amplification of 3.6 kbp). As a control, amplification was also performed using Taq DNA polymerase. Taq DNA polymerase produced by Toyobo Co. Ltd. mixed with Anti-Taq High (produced by Toyobo Co. Ltd.) was used. 50 μl of a reaction solution containing 1× buffer included in Blend Taq, dNTPs (dATP, dUTP, dCTP, dGTP) in an amount of 2 mM in which dTTP was replaced by dUTP, primers in an amount of 10 pmol the same as the above), 10 ng of human genomic DNA (produced by Roche), and 2.5 U of the enzyme mixed with the antibody was used. PCR was performed using a GeneAmp PCR system 9700 (produced by Applied Biosystems) on the following schedule: preliminary reaction at 94° C. for 2 minutes, followed by 35 cycles, each cycle consisting of 94° C. for 30 seconds, 65° C. for 30 seconds, and 68° C. for about 1 minute per kbp (1 minute and 30 seconds for amplification of 1.3 kbp; 3 minutes for amplification of 2.8 kbp; 4 minutes for amplification of 3.6 kbp). After the completion of each individual reaction, 5 μl of each of the resulting reaction solutions was subjected to agarose electrophoresis, followed by ethidium bromide staining, and the amount of amplified DNA fragments was confirmed under ultraviolet irradiation. FIGS. 9 and 10 show the results.

Row | Substance | Results of PCR in the presence of dUTP 481 bp [1] | Evaluation of dUTP resisitance on a 11-point scale [2] | Results of PCR in the presence of dUTP 1.3 kbp [3] | Results of PCR in the presence of dUTP 2.8 kbp [3] | Results of PCR in the presence of dUTP 3.6 kbp [3]
1 | KOD H147E/Y7A/P36H/V93K: KOD H147E (exo(+)) mutant with Y7A, P36H and V93K | C | 0 | C | C | C
2 | KOD H147E/Y7A/P36R/V93K: KOD H147E (exo(+)) mutant with Y7A, P36R and V93K | C | 0 | C | C | C
3 | KOD Y7A/P36H/V93K: modified KOD DNA polymerase with Y7A, P36H and V93K | C | 0 | C | C | C
4 | KOD Y7A/P36R/V93K: modified KOD DNA polymerase with Y7A, P36R and V93K | C | 0 | C | C | C
